In ChEMBL document CHEMBL5442379, “ASAP - SARS-CoV-2 nsp3 macrodomain single point” (2024):

Molecular target: Replicase polyprotein 1ab (Severe acute respiratory syndrome coronavirus 2) (UniProt P0DTD1)
Description: Functional biochemical assay to identify treatments for viral infectious disease that targets SARS-COV-2 nsp3 macrodomain, whereby the mechanism of action displaces an ADP-Ribose modified peptide from the binding site. Utilizing a time-resolved fluorescence method to measure binding by reading the emitted fluorescence intensity in two wavelengths.

Clc1cnc(OCCNc2ncnc3[nH]ccc23)c(Cl)c1
inhibition (Concentration 50.0 uM, Number of replicates 2.0, Standard deviation 2.048 %): -4.3%
inhibition (Concentration 100.0 uM, Number of replicates 2.0, Standard deviation 3.465 %): -7.69%

Cc1ccnc(C2CCN(c3ncnc4[nH]ccc34)CC2)n1
inhibition (Concentration 50.0 uM, Number of replicates 2.0, Standard deviation 3.755 %): 3.46%

O=C(c1cn2ncccc2n1)N1CCC(c2ccn3ncc(C(=O)N4CCCCC4)c3c2)CC1
inhibition (Concentration 49.75 uM, Number of replicates 2.0, Standard deviation 0.525 %): 30.7%
inhibition (Concentration 99.5 uM, Number of replicates 2.0, Standard deviation 6.296 %): 53.8%

c1ccc([C@@H](CNc2ncnc3n[nH]cc23)N2CCOCC2)cc1
inhibition (Concentration 50.0 uM, Number of replicates 2.0, Standard deviation 1.427 %): -0.781%

COc1cc(CC(=O)Nc2cc3c(=O)nc[nH]c3cn2)on1
inhibition (Concentration 49.75 uM, Number of replicates 2.0, Standard deviation 0.449 %): -4.69%
inhibition (Concentration 99.5 uM, Number of replicates 2.0, Standard deviation 2.956 %): -3.48%

Cc1ccc(-c2n[nH]cc2CNc2cnc3[nH]ncc3c2)o1
inhibition (Concentration 50.0 uM, Number of replicates 2.0, Standard deviation 33.024 %): 7.23%

CN(c1ncnc2[nH]ccc12)[C@H]1CCN(S(C)(=O)=O)C1
inhibition (Concentration 50.0 uM, Number of replicates 2.0, Standard deviation 5.861 %): -0.371%

CCO[C@@H]1C[C@@H](Nc2ncnc3[nH]ccc23)C12CCOCC2
inhibition (Concentration 50.0 uM, Number of replicates 2.0, Standard deviation 3.029 %): 2.32%

Cn1nncc1C(=O)N(CCC(=O)N1CCNCC1)Cc1cccc(Cl)c1
inhibition (Concentration 49.75 uM, Number of replicates 2.0, Standard deviation 1.263 %): 0.447%
inhibition (Concentration 99.5 uM, Number of replicates 2.0, Standard deviation 1.735 %): -2.15%

Cc1nn(Cc2ccccc2)c(C)c1CNc1ncnc2[nH]ncc12
inhibition (Concentration 50.0 uM, Number of replicates 2.0, Standard deviation 2.858 %): -1.75%

O=C(CCN(Cc1cccc(Cl)c1)C(=O)c1c[nH]c(=O)cn1)N1CCNCC1
inhibition (Concentration 49.75 uM, Number of replicates 2.0, Standard deviation 1.237 %): -2.71%
inhibition (Concentration 99.5 uM, Number of replicates 2.0, Standard deviation 0.012 %): 0.98%

CN(C[C@H]1CCCN1)C(=O)c1cnn2ccc(C3CCN(C(=O)c4ccccc4)CC3)cc12
inhibition (Concentration 49.75 uM, Number of replicates 2.0, Standard deviation 0.33 %): -7.47%
inhibition (Concentration 99.5 uM, Number of replicates 2.0, Standard deviation 2.559 %): -6.59%

O=C(c1ccnnc1O)N1CCC(c2ccn3ncc(C(=O)N4CCCCC4)c3c2)CC1
inhibition (Concentration 49.75 uM, Number of replicates 2.0, Standard deviation 0.647 %): -7.59%
inhibition (Concentration 99.5 uM, Number of replicates 2.0, Standard deviation 0.871 %): 10.2%

O=C1CCC[C@@H](C(=O)N(CCC(=O)N2CCNCC2)Cc2cccc(Cl)c2)N1
inhibition (Concentration 49.75 uM, Number of replicates 2.0, Standard deviation 3.727 %): 2.42%
inhibition (Concentration 99.5 uM, Number of replicates 2.0, Standard deviation 3.7 %): -3.31%

CC(C)[C@@H]1C(=O)NCCN1c1ncnc2[nH]ccc12
inhibition (Concentration 49.75 uM, Number of replicates 2.0, Standard deviation 1.976 %): 61.4%
inhibition (Concentration 99.5 uM, Number of replicates 2.0, Standard deviation 0.754 %): 80.7%

Cc1nn(-c2ccccc2)c(C)c1[C@H]1COCCN1c1ncnc2[nH]ccc12
inhibition (Concentration 49.75 uM, Number of replicates 2.0, Standard deviation 1.442 %): -0.042%
inhibition (Concentration 99.5 uM, Number of replicates 2.0, Standard deviation 1.631 %): -4.22%

CC(C)n1nccc1NC(=O)c1ccc(NC(=O)Nc2ccccc2)cc1
inhibition (Concentration 49.75 uM, Number of replicates 2.0, Standard deviation 2.48 %): -2%
inhibition (Concentration 99.5 uM, Number of replicates 2.0, Standard deviation 1.778 %): -0.924%

Cn1ncc2ncnc(NCc3ncccc3O)c21
inhibition (Concentration 50.0 uM, Number of replicates 2.0, Standard deviation 1.081 %): -2.55%

O=C(CCN(Cc1cccc(Cl)c1)C(=O)[C@@H]1CNCC12CC2)N1CCNCC1
inhibition (Concentration 49.75 uM, Number of replicates 2.0, Standard deviation 4.003 %): 4.21%
inhibition (Concentration 99.5 uM, Number of replicates 2.0, Standard deviation 2.443 %): 2.38%

c1nc(NCc2cnc3sccn23)c2[nH]cnc2n1
inhibition (Concentration 50.0 uM, Number of replicates 2.0, Standard deviation 7.011 %): -4.78%
inhibition (Concentration 100.0 uM, Number of replicates 2.0, Standard deviation 4.457 %): 5.65%

O=S(=O)(Nc1cnc2[nH]ncc2c1)c1cnn(C2CCCC2)c1
inhibition (Concentration 50.0 uM, Number of replicates 2.0, Standard deviation 0.633 %): 0.415%

Cc1cc(C(=O)N2CCC(c3ccn4ncc(C(=O)N5CCCCC5)c4c3)CC2)[nH]n1
inhibition (Concentration 49.75 uM, Number of replicates 2.0, Standard deviation 4.639 %): 16.6%
inhibition (Concentration 99.5 uM, Number of replicates 2.0, Standard deviation 3.947 %): 31.6%

CN1CCC[C@@H]1CNC(=O)c1cnn2ccc(C3CCN(C(=O)c4ccccc4)CC3)cc12
inhibition (Concentration 49.75 uM, Number of replicates 2.0, Standard deviation 1.011 %): -4.43%
inhibition (Concentration 99.5 uM, Number of replicates 2.0, Standard deviation 3.797 %): 1.5%

O=C(NC[C@@H]1CCCCN1)c1cnn2ccc(C3CCN(C(=O)c4ccccc4)CC3)cc12
inhibition (Concentration 49.75 uM, Number of replicates 2.0, Standard deviation 3.98 %): -5.92%
inhibition (Concentration 99.5 uM, Number of replicates 2.0, Standard deviation 0.917 %): -2.57%

CCN(Cc1nnc(C)o1)C(=O)c1cnn2ccc(C3CCN(C(=O)c4ccccc4)CC3)cc12
inhibition (Concentration 49.75 uM, Number of replicates 2.0, Standard deviation 14.085 %): 10%
inhibition (Concentration 99.5 uM, Number of replicates 2.0, Standard deviation 1.269 %): -5.31%

NCC(F)(F)CNC(=O)c1ccc(NC(=O)Nc2ccccc2)cc1
inhibition (Concentration 49.75 uM, Number of replicates 2.0, Standard deviation 4.8 %): -0.965%
inhibition (Concentration 99.5 uM, Number of replicates 2.0, Standard deviation 1.089 %): -1.17%

CC(C)[C@@H](Nc1ncnc2[nH]ccc12)C(F)F
inhibition (Concentration 49.75 uM, Number of replicates 2.0, Standard deviation 1.25 %): 81.6%
inhibition (Concentration 99.5 uM, Number of replicates 2.0, Standard deviation 1.983 %): 91.7%

O=C(c1ccnc(S)c1)N1CCC(c2ccn3ncc(C(=O)N4CCCCC4)c3c2)CC1
inhibition (Concentration 49.75 uM, Number of replicates 2.0, Standard deviation 0.749 %): 20.2%
inhibition (Concentration 99.5 uM, Number of replicates 2.0, Standard deviation 3.677 %): 35.5%

O=C1CC[C@H](COC(=O)c2ncnc3[nH]ccc23)CCN1
inhibition (Concentration 50.0 uM, Number of replicates 2.0, Standard deviation 3.465 %): -7.87%

Nc1ncc(C(=O)N(CCC(=O)N2CCNCC2)Cc2cccc(Cl)c2)cn1
inhibition (Concentration 49.75 uM, Number of replicates 2.0, Standard deviation 3.901 %): -2.76%
inhibition (Concentration 99.5 uM, Number of replicates 2.0, Standard deviation 0.039 %): -1.73%

Cc1cccc(OCCNc2ncnc3nc[nH]c23)c1
inhibition (Concentration 50.0 uM, Number of replicates 2.0, Standard deviation 4.697 %): 3.91%

Cn1ncnc1C(=O)N1CCC(c2ccn3ncc(C(=O)N4CCCCC4)c3c2)CC1
inhibition (Concentration 49.75 uM, Number of replicates 2.0, Standard deviation 0.221 %): 2.38%
inhibition (Concentration 99.5 uM, Number of replicates 2.0, Standard deviation 2.086 %): 20.4%

c1nc(N[C@@H]2CCCc3c2cnn3C2CCCC2)c2cc[nH]c2n1
inhibition (Concentration 49.75 uM, Number of replicates 2.0, Standard deviation 0.354 %): 0.884%
inhibition (Concentration 99.5 uM, Number of replicates 2.0, Standard deviation 0.15 %): 14.3%

COCc1cc(CNc2nc3[nH]cnc3c(=O)[nH]2)on1
inhibition (Concentration 50.0 uM, Number of replicates 2.0, Standard deviation 1.926 %): 2.98%

O=C(c1cccc(Br)c1)N1CCC(c2ccn3ncc(C(=O)N4CCCCC4)c3c2)CC1
inhibition (Concentration 50.0 uM, Number of replicates 2.0, Standard deviation 0.499 %): 32.1%

CNC[C@@H]1CCCN1C(=O)c1cnn2ccc(C3CCN(C(=O)c4ccccc4)CC3)cc12
inhibition (Concentration 49.75 uM, Number of replicates 2.0, Standard deviation 1.186 %): -1.47%
inhibition (Concentration 99.5 uM, Number of replicates 2.0, Standard deviation 2.864 %): -2.2%

c1ccc2sc(CNc3ncnc4[nH]ccc34)nc2c1
inhibition (Concentration 50.0 uM, Number of replicates 2.0, Standard deviation 5.906 %): -0.671%

O=C(Nc1cnn(C2CCNCC2)c1)c1ncnc2[nH]ccc12
inhibition (Concentration 50.0 uM, Number of replicates 2.0, Standard deviation 5.148 %): -1.9%

C[C@H](NC(=O)c1ccc(NC(=O)Nc2ccccc2)cc1)c1ccccn1
inhibition (Concentration 49.75 uM, Number of replicates 2.0, Standard deviation 2.561 %): 2.45%
inhibition (Concentration 99.5 uM, Number of replicates 2.0, Standard deviation 6.365 %): 0.349%

O=C(NCc1ncccn1)c1cnn2ccc(C3CCN(C(=O)c4ccccc4)CC3)cc12
inhibition (Concentration 49.75 uM, Number of replicates 2.0, Standard deviation 2.653 %): -0.074%
inhibition (Concentration 99.5 uM, Number of replicates 2.0, Standard deviation 0.514 %): -6.66%

Cn1cc(Br)c(CNC(=O)c2ccc(NC(=O)Nc3ccccc3)cc2)n1
inhibition (Concentration 49.75 uM, Number of replicates 2.0, Standard deviation 4.908 %): 4.31%
inhibition (Concentration 99.5 uM, Number of replicates 2.0, Standard deviation 1.253 %): 1.2%

Oc1ccccc1CNc1ncnc2[nH]cnc12
inhibition (Concentration 50.0 uM, Number of replicates 2.0, Standard deviation 0.892 %): 1.9%

Cc1c([C@@H](C)Nc2ncnc3[nH]ccc23)cnn1-c1ccccc1
inhibition (Concentration 49.75 uM, Number of replicates 2.0, Standard deviation 1.063 %): 28.1%
inhibition (Concentration 99.5 uM, Number of replicates 2.0, Standard deviation 3.12 %): 41.7%

CO[C@@H]1CCCN(C(=O)c2cnn3ccc(C4CCN(C(=O)c5ccccc5)CC4)cc23)C1
inhibition (Concentration 49.75 uM, Number of replicates 2.0, Standard deviation 1.69 %): 22.6%
inhibition (Concentration 99.5 uM, Number of replicates 2.0, Standard deviation 3.272 %): 39.8%

CS(=O)(=O)N1CC[C@@H](COC(=O)c2ncnc3[nH]ccc23)C1
inhibition (Concentration 50.0 uM, Number of replicates 2.0, Standard deviation 2.196 %): 0.187%

CC1(C)CN(C(=O)c2ccc(NC(=O)Nc3ccccc3)cc2)C[C@@]1(F)C(=O)O
inhibition (Concentration 49.75 uM, Number of replicates 2.0, Standard deviation 0.273 %): -2.57%
inhibition (Concentration 99.5 uM, Number of replicates 2.0, Standard deviation 1.041 %): -5.19%

C[C@@H](Cc1ccc(Cl)s1)Nc1ccc([C@@H](CC(=O)O)NC(=O)c2c[nH]c3ncncc23)cc1
inhibition (Concentration 49.75 uM, Number of replicates 2.0, Standard deviation 2.68 %): -1.54%
inhibition (Concentration 99.5 uM, Number of replicates 2.0, Standard deviation 2.267 %): 1.95%

C(=C1CCCCC1)c1ncnc2[nH]ccc12
inhibition (Concentration 50.0 uM, Number of replicates 2.0, Standard deviation 3.96 %): -5.46%
inhibition (Concentration 100.0 uM, Number of replicates 2.0, Standard deviation 2.541 %): 3.46%

COc1cc(OC)cc(C(=O)N(CCC(=O)N2CCNCC2)Cc2cccc(Cl)c2)c1
inhibition (Concentration 50.0 uM, Number of replicates 2.0, Standard deviation 1.533 %): -4.53%
